Values after ≈ are worked out from the molar mass of the structure shown. Like-named read-outs stand apart in the source and are kept apart here.
How the values were obtained:
[1] = system: Salmonella typhimurium IID971; test: MIC, serial dilution method in Müller-Hinton agar; assay type: cell-based; details: Salmonella enterica, 18 h
Experimental: (§1) The antibacterial activities of the cephalosporin compounds of the formula (I) according to this invention, specifically the final product compounds of the Examples 1 to 6 given hereinafter, were assayed in term of their minimum inhibitory concentrations (MIC; mcg/ml) against various test bacteria, as determined according to a standard serial dilution method in Müller-Hinton agar medium (a product of Difico company), where the incubation was made at 37°C for 18 hours. For the comparison purpose, the antibacterial spectrum of a known compound, Cefalexin (abbreviated as CEX) was also assayed in the same way as above.

[2] = system: Staphylococcus aureus FDA209P JC-1; test: MIC, serial dilution method in Müller-Hinton agar; assay type: cell-based
Experimental: as §1

[3] = system: Salmonella typhi 901; test: MIC, serial dilution method in Müller-Hinton agar; assay type: cell-based; details: Salmonella enterica, 18 h
Experimental: as §1

[4] = system: Escherichia coli K-12 C600; test: MIC, serial dilution method in Müller-Hinton agar; assay type: cell-based
Experimental: as §1

[5] = system: Salmonella enteritidis G14; test: MIC, serial dilution method in Müller-Hinton agar; assay type: cell-based; details: Salmonella enterica
Experimental: as §1

[6] = system: Klebsiella oxytosa GN10560; test: MIC, serial dilution method in Müller-Hinton agar; assay type: cell-based; details: Klebsiella oxytosa GN10560, cefuroximase producing strain, 37°C, 18 hours
Experimental: as §1

[7] = system: Proteus morganii IFO3848; test: MIC, serial dilution method in Müller-Hinton agar; assay type: cell-based; details: Morganella morganii
Experimental: as §1

[8] = system: Micrococcus luteus ATCC9341; test: MIC, serial dilution method in Müller-Hinton agar; assay type: cell-based; details: 37°C, 18 hours
Experimental: as §1

[9] = system: Rms213/Escherichia coli K-12 W3630; test: MIC, serial dilution method in Müller-Hinton agar; assay type: cell-based; details: 18 h
Experimental: as §1

[10] = system: Salmonella schottmulleri 8006; test: MIC, serial dilution method in Müller-Hinton agar; assay type: cell-based; details: 37°C, 18 hours
Experimental: as §1

[11] = system: Salmonella paratyphi 1015; test: MIC, serial dilution method in Müller-Hinton agar; assay type: cell-based; details: Salmonella enterica, 37°C, 18 hours
Experimental: as §1

[12] = system: Staphylococcus aureus Terajima; test: MIC, serial dilution method in Müller-Hinton agar; assay type: cell-based; details: 37°C, 18 hours
Experimental: as §1

[13] = system: Rms823/Escherichia coli K-12 W3630; test: MIC, serial dilution method in Müller-Hinton agar; assay type: cell-based; details: 18 h
Experimental: as §1

[14] = system: Staphylococcus aureus MS353; test: MIC, serial dilution method in Müller-Hinton agar; assay type: cell-based
Experimental: as §1

[15] = system: Bacillus subtilis ATCC6633; test: MIC, serial dilution method in Müller-Hinton agar; assay type: cell-based; details: 37°C, 18 hours
Experimental: as §1

[16] = system: Rms139/MI Pseudomonas aeruginosa; test: MIC, serial dilution method in Müller-Hinton agar; assay type: cell-based; details: 18 h
Experimental: as §1

[17] = system: Proteus vulgaris OX-19; test: MIC, serial dilution method in Müller-Hinton agar; assay type: cell-based; details: OX19, 37°C, 18 hours
Experimental: as §1

[18] = system: Rms212/Escherichia coli K-12 W3630; test: MIC, serial dilution method in Müller-Hinton agar; assay type: cell-based; details: 18 h
Experimental: as §1

[19] = system: Rte16/Escherichia coli K-12 W3630; test: MIC, serial dilution method in Müller-Hinton agar; assay type: cell-based; details: 18 h
Experimental: as §1

[20] = system: Klebsiella pneumoniae PCI602; test: MIC, serial dilution method in Müller-Hinton agar; assay type: cell-based
Experimental: as §1

[21] = system: Escherichia coli NIHJ-JS-2; test: MIC, serial dilution method in Müller-Hinton agar; assay type: cell-based
Experimental: as §1

[22] = system: Proteus rettgeri IFO3850; test: MIC, serial dilution method in Müller-Hinton agar; assay type: cell-based; details: Providencia rettgeri
Experimental: as §1

[23] = system: Pseudomonas aeruginosa IFO3445; test: MIC, serial dilution method in Müller-Hinton agar; assay type: cell-based; details: 37°C, 18 hours
Experimental: as §1

[24] = Test 1: urinary recovery after oral administration; assay type: in vivo; details: mice (ICR-strain, female), 300 mcg per mouse, urine collected until 5 hours after administration, microbial assay, molar percentage
Experimental: To mice (ICR-strain, female, 4 weeks-aged) was orally administered a new cephalosporin compound according to this invention at a dosage of 300 mcg per mouse. Until the end of 5 hours after oral administration of the test cephalosporin compound, all the volumes of urine discharged by the treated mice were collected together, and the total amount of the test compound remaining in the collected urine was measured by a microbial assay method. The urinary recovery of the test compound was calculated in terms of percentage of the molar quantity of the test compound as recovered, against the molar quantity of the test compound as orally given.

[25] = K12C600, Escherichia coli K-12 C600, Müller-Hinton agar, 37°C, 18 hours, read-out: MIC
[26] = Salmonella enteritidis G14, Müller-Hinton agar, 37°C, 18 hours, read-out: MIC
[27] = Staphylococcus aureus, MS353, 18 h
[28] = NIHJJS2, Escherichia coli NIHJ-JS-2, Müller-Hinton agar, 37°C, 18 hours, read-out: MIC
[29] = Staphylococcus aureus FDA209P JC-1, Müller-Hinton agar, 37°C, 18 hours, read-out: MIC
[30] = Klebsiella pneumoniae, PCI602, 18 h

**Q.** Which MIC [1] does the source give for `C/C=C\C1=C(C(=O)O)N2C(=O)C(NC(=O)[C@H](N)c3ccc(CO)c(O)c3)[C@H]2SC1` (stereo partly drawn) [Example 4 Compound, 7-{(R)-2-amino-2-(3-hydroxy-4-hydroxymethylphenyl)acetamido)-3-{(Z)-1-propenyl)-3-cephem-4-carboxylic acid] here?
**A.** The MIC was 1.56 µg/mL (≈ 3.72 µM).

**Q.** And the MIC ([2]; Staphylococcus aureus, FDA209P, 18 h)?
**A.** Its MIC is 1.56 µg/mL (≈ 3.72 µM).

**Q.** And the MIC [3]?
**A.** The MIC was 0.78 µg/mL (≈ 1.86 µM).

**Q.** What about the MIC [4, 25] of the same molecule?
**A.** Its MIC is 3.13 µg/mL (≈ 7.46 µM).

**Q.** What about the MIC [5, 26] of the same molecule?
**A.** Its MIC is 0.78 µg/mL (≈ 1.86 µM).

**Q.** What about the MIC [6] of the same molecule?
**A.** The MIC was greater than 100 µg/mL.

**Q.** What about the MIC ([7]; IFO3848, 18 h) of the same molecule?
**A.** The MIC was 1.56 µg/mL (≈ 3.72 µM).

**Q.** What about the MIC [8] of the same molecule?
**A.** The MIC was 0.1 µg/mL (≈ 0.238 µM).

**Q.** And the MIC [9]?
**A.** The MIC was 6.25 µg/mL (≈ 14.9 µM).

**Q.** And the MIC [10]?
**A.** Its MIC is 1.56 µg/mL (≈ 3.72 µM).

**Q.** What about the MIC [11] of the same molecule?
**A.** The MIC was 1.56 µg/mL (≈ 3.72 µM).

**Q.** And the MIC [12]?
**A.** The MIC was 0.1 µg/mL (≈ 0.238 µM).

**Q.** And the MIC [13]?
**A.** Its MIC is 100 µg/mL (≈ 238 µM).

**Q.** What about the MIC [14, 27] of the same molecule?
**A.** The MIC was 1.56 µg/mL (≈ 3.72 µM).

**Q.** What about the MIC [15] of the same molecule?
**A.** The MIC was 0.2 µg/mL (≈ 0.477 µM).

**Q.** And the MIC [16]?
**A.** Its MIC is greater than 100 µg/mL.

**Q.** And the MIC [17]?
**A.** The MIC was 25 µg/mL (≈ 59.6 µM).

**Q.** And the MIC [18]?
**A.** The MIC was 12.5 µg/mL (≈ 29.8 µM).

**Q.** And the MIC [19]?
**A.** Its MIC is 12.5 µg/mL (≈ 29.8 µM).

**Q.** And the MIC ([20]; Klebsiella pneumoniae PCI602, Müller-Hinton agar, 37°C, 18 hours, read-out: MIC)?
**A.** The MIC was 0.78 µg/mL (≈ 1.86 µM).

**Q.** What about the MIC [21, 28] of the same molecule?
**A.** The MIC was 6.25 µg/mL (≈ 14.9 µM).

**Q.** What about the MIC ([22]; IFO3850, 18 h) of the same molecule?
**A.** The MIC was 1.56 µg/mL (≈ 3.72 µM).

**Q.** What about the MIC [23] of the same molecule?
**A.** Its MIC is greater than 100 µg/mL.

**Q.** And the dose excreted [24]?
**A.** The dose excreted was 58.8%.

**Q.** For `COCC1=C(C(=O)O)N2C(=O)C(NC(=O)[C@H](N)c3ccc(CO)c(O)c3)[C@H]2SC1` (stereo partly drawn) [Example 2 Compound, 7-{(R)-2-amino-2-(3-hydroxy-4-hydroxymethylphenyl)acetamido}-3-methoxymethyl-3-cephem-4-carboxylic acid], which MIC [1] is on record?
**A.** The MIC was 6.25 µg/mL (≈ 14.8 µM).

**Q.** What about the MIC [2, 29] of the same molecule?
**A.** The MIC was 1.56 µg/mL (≈ 3.68 µM).

**Q.** And the MIC [3]?
**A.** The MIC was 6.25 µg/mL (≈ 14.8 µM).

**Q.** What about the MIC ([4]; Escherichia coli, K12C600, 18 h) of the same molecule?
**A.** Its MIC is 12.5 µg/mL (≈ 29.5 µM).

**Q.** What about the MIC ([5]; ENTERITIDIS, 18 h) of the same molecule?
**A.** Its MIC is 6.25 µg/mL (≈ 14.8 µM).

**Q.** And the MIC [6]?
**A.** Its MIC is greater than 100 µg/mL.

**Q.** What about the MIC ([7]; Proteus morganii IFO3848, Müller-Hinton agar, 37°C, 18 hours, read-out: MIC) of the same molecule?
**A.** The MIC was 50 µg/mL (≈ 118 µM).

**Q.** And the MIC [8]?
**A.** The MIC was 0.1 µg/mL (≈ 0.236 µM).

**Q.** And the MIC [9]?
**A.** Its MIC is 12.5 µg/mL (≈ 29.5 µM).

**Q.** What about the MIC [10] of the same molecule?
**A.** Its MIC is 6.25 µg/mL (≈ 14.8 µM).

**Q.** And the MIC [11]?
**A.** Its MIC is 12.5 µg/mL (≈ 29.5 µM).

**Q.** And the MIC [12]?
**A.** The MIC was 0.2 µg/mL (≈ 0.472 µM).

**Q.** And the MIC [13]?
**A.** Its MIC is greater than 100 µg/mL.

**Q.** And the MIC ([14]; Staphylococcus aureus MS353, Müller-Hinton agar, 37°C, 18 hours, read-out: MIC)?
**A.** Its MIC is 1.56 µg/mL (≈ 3.68 µM).

**Q.** And the MIC [15]?
**A.** Its MIC is 0.2 µg/mL (≈ 0.472 µM).

**Q.** And the MIC [16]?
**A.** Its MIC is greater than 100 µg/mL.

**Q.** What about the MIC [17] of the same molecule?
**A.** Its MIC is 100 µg/mL (≈ 236 µM).

**Q.** And the MIC [18]?
**A.** The MIC was 50 µg/mL (≈ 118 µM).

**Q.** And the MIC [19]?
**A.** The MIC was 25 µg/mL (≈ 59 µM).

**Q.** What about the MIC [20, 30] of the same molecule?
**A.** Its MIC is 6.25 µg/mL (≈ 14.8 µM).

**Q.** What about the MIC ([21]; Escherichia coli, NIHJJS2, 18 h) of the same molecule?
**A.** The MIC was 12.5 µg/mL (≈ 29.5 µM).

**Q.** And the MIC ([22]; Proteus rettgeri IFO3850, Müller-Hinton agar, 37°C, 18 hours, read-out: MIC)?
**A.** The MIC was 25 µg/mL (≈ 59 µM).

**Q.** And the MIC [23]?
**A.** The MIC was greater than 100 µg/mL.

**Q.** What about the dose excreted [24] of the same molecule?
**A.** The dose excreted was 48.3%.

**Q.** Which results are given for `C/C=C\C1=C(C(=O)O)N2C(=O)C(NC(=O)[C@H](N)c3ccc(COC)c(OC)c3)[C@H]2SC1` (stereo partly drawn) [Example 6 Compound, 7-{(R)-2-amino-2-(3-methoxy-4-methoxymethylphenyl)acetamido}-3-{(Z)-1-propenyl}-3-cephem-4-carboxylic acid]?
**A.** MIC [1]: 12.5 µg/mL (≈ 27.9 µM); MIC [2, 29]: 0.78 µg/mL (≈ 1.74 µM); MIC [3]: 12.5 µg/mL (≈ 27.9 µM); MIC [4, 25]: 6.25 µg/mL (≈ 14 µM); MIC [5, 26]: 6.25 µg/mL (≈ 14 µM); MIC [6]: > 100 µg/mL; MIC ([7]; IFO3848, 18 h): 1.56 µg/mL (≈ 3.49 µM); MIC [8]: 0.025 µg/mL (≈ 0.0559 µM); MIC [9]: 12.5 µg/mL (≈ 27.9 µM); MIC [10]: 1.56 µg/mL (≈ 3.49 µM); MIC [11]: 3.13 µg/mL (≈ 6.99 µM); MIC [12]: 0.1 µg/mL (≈ 0.223 µM); MIC [13]: > 100 µg/mL; MIC [14, 27]: 1.56 µg/mL (≈ 3.49 µM); MIC [15]: 0.05 µg/mL (≈ 0.112 µM); MIC [16]: > 100 µg/mL; MIC [17]: 100 µg/mL (≈ 223 µM); MIC [18]: 100 µg/mL (≈ 223 µM); MIC [19]: 25 µg/mL (≈ 55.9 µM); MIC [20, 30]: 1.56 µg/mL (≈ 3.49 µM); MIC [21, 28]: 25 µg/mL (≈ 55.9 µM); MIC ([22]; IFO3850, 18 h): 12.5 µg/mL (≈ 27.9 µM); MIC [23]: > 100 µg/mL; dose excreted [24]: 32.9%
